Laboratory results as given in ChEMBL document CHEMBL1130186, “Potent alpha 4 beta 1 peptide antagonists as potential anti-inflammatory agents” (J Med Chem, 1997).
*1 amine or outer side, *2 acyl side, *3 side chain or, on linkers, in order; H or OH if unused. Where a SMILES comes first, the peptide text is derived from it. Bridges are numbered along the chain shown (N, C = ends). [ ]: non-standard residue; d: D form. The star is where a group is joined. ξ: configuration not given here. X5 = O=C([C@H](Cc1c(F)c(F)c(O)c(F)c1F)N[*:1])[*:2]; Fluorene(1-CO) = O=C(c1cccc2c1Cc1ccccc1-2)*; Tyr(3-Cl) = N[C@@H](Cc1ccc(O)c(Cl)c1)C(=O)O; Phenylacetyl(4-OMe) = COc1ccc(CC(=O)*)cc1; Tyr(3-F) = N[C@@H](Cc1ccc(O)c(F)c1)C(=O)O; Tyr(3-I) = N[C@@H](Cc1ccc(O)c(I)c1)C(=O)O; Oic(3aξ,7aξ) = O=C(O)[C@@H]1CC2CCCCC2N1; X1 = O=C(C(Cc1ccc(O)cc1)c1ccccc1)*; mTyr = N[C@@H](Cc1cccc(O)c1)C(=O)O; X4 = O=C(c1ccc(-c2ccc(O)cc2)cc1)*; Cha = N[C@@H](CC1CCCCC1)C(=O)O; X2 = O=C(c1cccc2cc(O)ccc12)*; 3Amb = NCc1cccc(C(=O)O)c1; 4Amb = NCc1ccc(C(=O)O)cc1; 3Abz = Nc1cccc(C(=O)O)c1; 4Abz = Nc1ccc(C(=O)O)cc1; 2Abz = Nc1ccccc1C(=O)O; Inp = O=C(O)C1CCNCC1; Ava = NCCCCC(=O)O; GABA = NCCCC(=O)O; βAla = NCCC(=O)O

Legend:
[1] = biological target: T1, Integrin alpha-4/beta-1 (Homo sapiens, UniProt P05556+P13612); test: Inhibition of alpha4-beta1 binding to VCAM-1 in ELISA.; assay type: protein-complex assay
T1 sequence (P05556 whole entry): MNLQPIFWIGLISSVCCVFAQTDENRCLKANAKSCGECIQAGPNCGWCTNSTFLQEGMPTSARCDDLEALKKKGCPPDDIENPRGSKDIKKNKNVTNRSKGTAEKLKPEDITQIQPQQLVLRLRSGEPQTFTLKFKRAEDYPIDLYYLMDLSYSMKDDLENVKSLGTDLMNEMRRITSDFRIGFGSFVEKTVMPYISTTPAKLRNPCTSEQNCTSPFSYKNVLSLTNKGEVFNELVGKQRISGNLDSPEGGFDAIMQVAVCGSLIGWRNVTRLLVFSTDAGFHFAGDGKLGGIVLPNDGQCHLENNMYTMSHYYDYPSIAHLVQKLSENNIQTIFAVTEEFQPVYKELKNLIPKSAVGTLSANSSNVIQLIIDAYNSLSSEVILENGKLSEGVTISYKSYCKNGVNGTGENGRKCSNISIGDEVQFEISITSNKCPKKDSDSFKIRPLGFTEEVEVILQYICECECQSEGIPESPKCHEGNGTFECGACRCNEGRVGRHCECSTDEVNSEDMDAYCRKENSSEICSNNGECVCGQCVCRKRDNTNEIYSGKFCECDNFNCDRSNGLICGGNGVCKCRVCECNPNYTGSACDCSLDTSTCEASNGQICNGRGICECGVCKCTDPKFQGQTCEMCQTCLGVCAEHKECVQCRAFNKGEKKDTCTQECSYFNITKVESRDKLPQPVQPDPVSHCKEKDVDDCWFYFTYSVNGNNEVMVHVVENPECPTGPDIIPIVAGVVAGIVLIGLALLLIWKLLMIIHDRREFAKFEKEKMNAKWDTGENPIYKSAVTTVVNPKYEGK
T1 sequence (P13612 whole entry): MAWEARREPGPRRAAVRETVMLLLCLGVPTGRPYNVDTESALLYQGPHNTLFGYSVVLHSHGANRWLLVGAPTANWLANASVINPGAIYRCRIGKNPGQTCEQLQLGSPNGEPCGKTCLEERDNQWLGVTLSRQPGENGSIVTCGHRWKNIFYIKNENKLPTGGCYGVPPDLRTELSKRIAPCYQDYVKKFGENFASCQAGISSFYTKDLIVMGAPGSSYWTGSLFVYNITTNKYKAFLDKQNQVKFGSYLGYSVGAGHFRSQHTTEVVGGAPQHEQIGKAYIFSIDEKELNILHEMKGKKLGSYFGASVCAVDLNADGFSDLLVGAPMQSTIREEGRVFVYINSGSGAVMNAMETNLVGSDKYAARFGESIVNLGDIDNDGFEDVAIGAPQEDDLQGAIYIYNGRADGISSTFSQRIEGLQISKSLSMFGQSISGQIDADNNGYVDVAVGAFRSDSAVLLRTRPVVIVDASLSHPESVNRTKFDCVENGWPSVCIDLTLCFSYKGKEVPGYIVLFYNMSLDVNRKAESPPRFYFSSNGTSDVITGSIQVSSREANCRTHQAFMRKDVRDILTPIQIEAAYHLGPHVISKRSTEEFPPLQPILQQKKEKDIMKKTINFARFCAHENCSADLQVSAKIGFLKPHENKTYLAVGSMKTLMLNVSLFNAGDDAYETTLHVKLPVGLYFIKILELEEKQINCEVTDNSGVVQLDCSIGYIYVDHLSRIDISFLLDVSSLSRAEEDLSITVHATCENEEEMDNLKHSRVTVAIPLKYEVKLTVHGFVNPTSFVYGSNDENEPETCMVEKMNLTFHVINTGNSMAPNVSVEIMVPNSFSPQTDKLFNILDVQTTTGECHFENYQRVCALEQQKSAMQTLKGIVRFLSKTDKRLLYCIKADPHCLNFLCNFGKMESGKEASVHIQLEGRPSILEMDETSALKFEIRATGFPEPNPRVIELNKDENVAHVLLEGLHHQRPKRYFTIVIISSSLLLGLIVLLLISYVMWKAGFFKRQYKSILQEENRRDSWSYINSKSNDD

[2] = biological target: T1, Integrin alpha-4/beta-1; test: Inhibition of fluorescently labeled alpha4-beta1 positive Ramos cells binding to immobilized VCAM-1.; assay type: cell-based
[3] = biological target: T1, Integrin alpha-4/beta-1; test: Inhibition of purified alpha-4 beta-1 binding to VCAM-1 was determined in an ELISA assay.; assay type: protein-complex assay

Compound: NC(N)=NCCC[C@H](N)C(=O)N[C@H]1CSSC[C@@H](C(=O)O)NC(=O)[C@@H]2CCCN2C(=O)[C@H](CC(=O)O)NC1=O (H-RCDPC-OH; disulfide 2-5)
- IC50 [1]: 3700 nM
- IC50 [2]: 80000 nM

Compound: N=C(N)NCCC[C@H](NC(=O)[C@@H](N)Cc1c[nH]c2ccccc12)C(=O)N[C@H]1CSSC[C@@H](C(=O)O)NC(=O)[C@@H]2CCCN2C(=O)[C@H](CC(=O)O)NC1=O (H-WRCDPC-OH; disulfide 3-6)
- IC50 [2]: 100000 nM
- IC50 [3]: 1200 nM

Compound: C[C@H](NC(=O)[C@@H](N)Cc1ccc(O)cc1)C(=O)N[C@H]1CSSC[C@@H](C(=O)O)NC(=O)[C@@H]2CCCN2C(=O)[C@H](CC(=O)O)NC1=O (H-YACDPC-OH; disulfide 3-6)
- IC50 [2]: 5000 nM
- IC50 [3]: 210 nM

Compound: C[C@@H]1NC(=O)[C@@H](NC(=O)[C@@H](N)Cc2ccc(O)cc2)CSSC[C@@H](C(=O)O)NC1=O (H-YCAC-OH; disulfide 2-4)
- IC50 [2]: 350000 nM
- IC50 [3]: 9400 nM

Compound: C[C@@H]1NC(=O)[C@@H](NC(=O)[C@@H](N)Cc2ccc(O)cc2)CSSC[C@@H](C(=O)O)NC(=O)[C@H](Cc2ccccc2)NC1=O (H-YCAFC-OH; disulfide 2-5)
- IC50 [2]: 182000 nM
- IC50 [3]: 2800 nM

Compound: CC[C@H](C)[C@@H]1NC(=O)[C@H](C)NC(=O)[C@@H](NC(=O)[C@@H](N)Cc2ccc(O)cc2)CSSC[C@@H](C(=O)O)NC1=O (H-YCAIC-OH; disulfide 2-5)
- IC50 [2]: 940 nM
- IC50 [3]: 23 nM

Compound: CC(C)C[C@@H]1NC(=O)[C@H](C)NC(=O)[C@@H](NC(=O)[C@@H](N)Cc2ccc(O)cc2)CSSC[C@@H](C(=O)O)NC1=O (H-YCALC-OH; disulfide 2-5)
- IC50 [2]: 10500 nM
- IC50 [3]: 34 nM

Compound: C[C@@H]1NC(=O)[C@@H](NC(=O)[C@@H](N)Cc2ccc(O)cc2)CSSC[C@@H](C(=O)O)NC(=O)[C@@H]2CCCN2C1=O (H-YCAPC-OH; disulfide 2-5)
- IC50 [2]: 120 nM
- IC50 [3]: 5 nM

Compound: C[C@@H]1NC(=O)[C@@H](NC(=O)[C@@H](N)Cc2ccc(O)cc2)CSSC[C@@H](C(=O)O)NC(=O)[C@H](CC2CCCCC2)NC1=O (H-YCA[Cha]C-OH; disulfide 2-5)
- IC50 [2]: 25000 nM
- IC50 [3]: 140 nM

Compound: C[C@@H]1NC(=O)[C@@H](NC(=O)[C@@H](N)Cc2ccc(O)cc2)CSSC[C@@H](C(=O)O)NC(=O)[C@@H]2CC3CCCCC3N2C1=O (stereo not given in full) (H-YCA[Oic(3aξ,7aξ)]C-OH; disulfide 2-5)
- IC50 [2]: 4700 nM
- IC50 [3]: 20 nM

Compound: N[C@@H](Cc1ccc(O)cc1)C(=O)N[C@H]1CSSC[C@@H](C(=O)O)NC(=O)CNC1=O (H-YCGC-OH; disulfide 2-4)
- IC50 [2]: 250000 nM
- IC50 [3]: 5800 nM

Compound: C[C@@H]1NC(=O)[C@@H]2CCCN2C(=O)[C@@H](NC(=O)[C@@H](N)Cc2ccc(O)cc2)CSSC[C@@H](C(=O)O)NC1=O (H-YCPAC-OH; disulfide 2-5)
- IC50 [2]: 14000 nM
- IC50 [3]: 230 nM

Compound: N[C@@H](Cc1ccc(O)cc1)C(=O)N[C@H]1CSSC[C@@H](C(=O)O)NC(=O)c2ccccc2NC1=O (H-YC[2Abz]C-OH; disulfide 2-4)
- IC50 [2]: 80000 nM
- IC50 [3]: 1300 nM

Compound: N[C@@H](Cc1ccc(O)cc1)C(=O)N[C@H]1CSSC[C@@H](C(=O)O)NC(=O)c2cccc(c2)NC1=O (H-YC[3Abz]C-OH; disulfide 2-4)
- IC50 [1]: 8 nM

Compound: N[C@@H](Cc1ccc(O)cc1)C(=O)N[C@H]1CSSC[C@@H](C(=O)O)NC(=O)c2cccc(c2)CNC1=O (H-YC[3Amb]C-OH; disulfide 2-4)
- IC50 [2]: 210000 nM
- IC50 [3]: 6000 nM

Compound: N[C@@H](Cc1ccc(O)cc1)C(=O)N[C@H]1CSSC[C@@H](C(=O)O)NC(=O)c2ccc(cc2)NC1=O (H-YC[4Abz]C-OH; disulfide 2-4)
- IC50 [2]: 4200 nM
- IC50 [3]: 160 nM

Compound: N[C@@H](Cc1ccc(O)cc1)C(=O)N[C@H]1CSSC[C@@H](C(=O)O)NC(=O)c2ccc(cc2)CNC1=O (H-YC[4Amb]C-OH; disulfide 2-4)
- IC50 [2]: 15000 nM
- IC50 [3]: 420 nM

Compound: N[C@@H](Cc1ccc(O)cc1)C(=O)N[C@H]1CSSC[C@@H](C(=O)O)NC(=O)CCCCNC1=O (H-YC[Ava]C-OH; disulfide 2-4)
- IC50 [2]: 17000 nM
- IC50 [3]: 410 nM

Compound: N[C@@H](Cc1ccc(O)cc1)C(=O)N[C@H]1CSSC[C@@H](C(=O)O)NC(=O)CCCNC1=O (H-YC[GABA]C-OH; disulfide 2-4)
- IC50 [2]: 1000 nM
- IC50 [3]: 38 nM

Compound: N[C@@H](Cc1ccc(O)cc1)C(=O)N[C@H]1CSSC[C@@H](C(=O)O)NC(=O)C2CCN(CC2)C1=O (H-YC[Inp]C-OH; disulfide 2-4)
- IC50 [2]: 1500 nM
- IC50 [3]: 31 nM

Compound: N[C@@H](Cc1ccc(O)cc1)C(=O)N[C@H]1CSSC[C@@H](C(=O)O)NC(=O)CCNC1=O (H-YC[βAla]C-OH; disulfide 2-4)
- IC50 [2]: 210000 nM
- IC50 [3]: 4200 nM

Compound: NCCCC[C@H](NC(=O)[C@@H](N)Cc1ccc(O)cc1)C(=O)N[C@H]1CSSC[C@@H](C(=O)O)NC(=O)[C@@H]2CCCN2C(=O)[C@H](CC(=O)O)NC1=O (H-YKCDPC-OH; disulfide 3-6)
- IC50 [2]: 5000 nM
- IC50 [3]: 150 nM

Compound: C[C@@H]1NC(=O)[C@@H](NC(=O)[C@H](CCCN=C(N)N)NC(=O)[C@@H](N)Cc2ccc(O)cc2)CSSC[C@@H](C(=O)O)NC(=O)[C@@H]2CCCN2C1=O (H-YRCAPC-OH; disulfide 3-6)
- IC50 [2]: 8000 nM
- IC50 [3]: 60 nM

Compound: NC(N)=NCCC[C@H](NC(=O)[C@@H](N)Cc1ccc(O)cc1)C(=O)N[C@H]1CSSC[C@@H](C(=O)O)NC(=O)[C@@H]2CCCN2C(=O)[C@H](CC(=O)O)NC1=O (H-YRCDPC-OH; disulfide 3-6)
- IC50 [2]: 6000 nM
- IC50 [3]: 110 nM

Compound: N=C(N)NCCC[C@H](NC(=O)[C@@H](N)Cc1ccc(O)cc1)C(=O)N[C@H]1CSSC[C@@H](C(=O)O)NC(=O)[C@@H]2CCCN2C(=O)[C@H](CCC(=O)O)NC1=O (H-YRCEPC-OH; disulfide 3-6)
- IC50 [2]: 30000 nM
- IC50 [3]: 90 nM

Compound: N=C(N)NCCC[C@H](NC(=O)[C@@H](N)Cc1ccc(O)cc1)C(=O)N[C@H]1CSSC[C@@H](C(=O)O)NC(=O)[C@@H]2CCCN2C(=O)[C@H](CC(N)=O)NC1=O (H-YRCNPC-OH; disulfide 3-6)
- IC50 [2]: 7000 nM
- IC50 [3]: 40 nM

Compound: N=C(N)NCCC[C@H](NC(=O)[C@@H](N)Cc1ccc(O)cc1)C(=O)N[C@H]1CSSC[C@@H](C(=O)O)NC(=O)[C@@H]2CCCN2C(=O)[C@H](CCC(N)=O)NC1=O (H-YRCQPC-OH; disulfide 3-6)
- IC50 [2]: 9000 nM
- IC50 [3]: 50 nM

Compound: O=C(N[C@H]1CSSC[C@@H](C(=O)O)NC(=O)[C@@H]2CCCN2C(=O)[C@H](CO)NC1=O)C1CCNCC1 (H-[Inp]CSPC-OH; disulfide 2-5)
- IC50 [2]: 50000 nM
- IC50 [3]: 4600 nM

Compound: N[C@@H](Cc1ccc(O)c(Cl)c1)C(=O)N[C@H]1CSSC[C@@H](C(=O)O)NC(=O)[C@@H]2CCCN2C(=O)[C@H](CO)NC1=O (H-[Tyr(3-Cl)]CSPC-OH; disulfide 2-5)
- IC50 [2]: 600 nM
- IC50 [3]: 7 nM

Compound: N[C@@H](Cc1ccc(O)c(F)c1)C(=O)N[C@H]1CSSC[C@@H](C(=O)O)NC(=O)[C@@H]2CCCN2C(=O)[C@H](CO)NC1=O (H-[Tyr(3-F)]CSPC-OH; disulfide 2-5)
- IC50 [2]: 500 nM
- IC50 [3]: 8 nM

Compound: N[C@@H](Cc1ccc(O)c(I)c1)C(=O)N[C@H]1CSSC[C@@H](C(=O)O)NC(=O)[C@@H]2CCCN2C(=O)[C@H](CO)NC1=O (H-[Tyr(3-I)]CSPC-OH; disulfide 2-5)
- IC50 [2]: 200 nM
- IC50 [3]: 4 nM

Compound: N[C@@H](Cc1c(F)c(F)c(O)c(F)c1F)C(=O)N[C@H]1CSSC[C@@H](C(=O)O)NC(=O)[C@@H]2CCCN2C(=O)[C@H](CO)NC1=O (H-[X5]CSPC-OH; disulfide 2-5)
- IC50 [2]: 60000 nM
- IC50 [3]: 530 nM

Compound: N[C@@H](Cc1cccc(O)c1)C(=O)N[C@H]1CSSC[C@@H](C(=O)O)NC(=O)[C@@H]2CCCN2C(=O)[C@H](CO)NC1=O (H-[mTyr]CSPC-OH; disulfide 2-5)
- IC50 [2]: 25000 nM
- IC50 [3]: 250 nM

Compound: O=C(N[C@H]1CSSC[C@@H](C(=O)O)NC(=O)[C@@H]2CCCN2C(=O)[C@H](CO)NC1=O)C(Cc1ccc(O)cc1)c1ccccc1 (stereo not given in full) (X1-CSPC-OH; disulfide 1-4)
- IC50 [2]: 2000 nM
- IC50 [3]: 13 nM

Compound: O=C(N[C@H]1CSSC[C@@H](C(=O)O)NC(=O)[C@@H]2CCCN2C(=O)[C@H](CO)NC1=O)c1cccc2cc(O)ccc12 (X2-CSPC-OH; disulfide 1-4)
- IC50 [2]: 40000 nM
- IC50 [3]: 1100 nM

Compound: O=C(N[C@H]1CSSC[C@@H](C(=O)O)NC(=O)[C@@H]2CCCN2C(=O)[C@H](CO)NC1=O)c1ccc(-c2ccc(O)cc2)cc1 (X4-CSPC-OH; disulfide 1-4)
- IC50 [2]: 120000 nM
- IC50 [3]: 1650 nM

Compound: O=C(N[C@H]1CSSC[C@@H](C(=O)O)NC(=O)[C@@H]2CCCN2C(=O)[C@H](CO)NC1=O)c1cccc2c1Cc1ccccc1-2 ({Fluorene(1-CO)}-CSPC-OH; disulfide 1-4)
- IC50 [2]: 1500 nM
- IC50 [3]: 140 nM

Compound: COc1ccc(CC(=O)N[C@H]2CSSC[C@@H](C(=O)O)NC(=O)[C@@H]3CCCN3C(=O)[C@H](CO)NC2=O)cc1 ({Phenylacetyl(4-OMe)}-CSPC-OH; disulfide 1-4)
- IC50 [2]: 3000 nM
- IC50 [3]: 250 nM
